# Results taken from PubChem BioAssay AID2432 (Johns Hopkins Ion Channel Center, 2010).
# Molecular target: Potassium voltage-gated channel subfamily KQT member 2 (Rattus norvegicus) (UniProt O88943)
# Experiment: molecular determinants of KCNQ2 potentiation – cell-based, rat KCNQ2, manual patch clamp, mode of action, mechanism study for KCNQ2 potentiator project, late-stage follow-up (AID 2432)
# Conditions: HEK293-KCNQ2 manual patch clamp, peak current ratio, at 10 µM; for V1/2: stronger effect = lower value
# Sequence of Potassium voltage-gated channel subfamily KQT member 2 (Rattus norvegicus) (O88943 whole entry, looked up): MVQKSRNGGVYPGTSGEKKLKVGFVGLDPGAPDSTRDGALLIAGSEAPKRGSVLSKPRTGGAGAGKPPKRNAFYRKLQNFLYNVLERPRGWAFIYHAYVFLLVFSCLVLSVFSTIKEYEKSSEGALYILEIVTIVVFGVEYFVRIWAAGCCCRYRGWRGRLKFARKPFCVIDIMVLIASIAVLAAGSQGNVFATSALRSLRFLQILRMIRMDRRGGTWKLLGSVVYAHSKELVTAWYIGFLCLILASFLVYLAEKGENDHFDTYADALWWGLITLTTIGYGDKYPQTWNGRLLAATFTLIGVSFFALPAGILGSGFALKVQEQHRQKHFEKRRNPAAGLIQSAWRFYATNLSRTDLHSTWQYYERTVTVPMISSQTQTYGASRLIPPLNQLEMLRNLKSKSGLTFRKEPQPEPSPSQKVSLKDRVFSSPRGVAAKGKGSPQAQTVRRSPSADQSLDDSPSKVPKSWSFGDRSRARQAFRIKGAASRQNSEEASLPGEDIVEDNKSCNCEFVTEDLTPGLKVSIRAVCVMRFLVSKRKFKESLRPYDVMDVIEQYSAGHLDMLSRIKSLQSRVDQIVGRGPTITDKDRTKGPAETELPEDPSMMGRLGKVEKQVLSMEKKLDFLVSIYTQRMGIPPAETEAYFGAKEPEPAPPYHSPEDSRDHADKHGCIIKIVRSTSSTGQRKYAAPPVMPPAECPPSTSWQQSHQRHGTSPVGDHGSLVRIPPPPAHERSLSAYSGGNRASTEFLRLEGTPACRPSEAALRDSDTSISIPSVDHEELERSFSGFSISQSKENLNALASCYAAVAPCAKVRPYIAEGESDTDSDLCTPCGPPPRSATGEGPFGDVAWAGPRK
compound,measurement,setting,value
O=C(Nc1ccc(Cl)nc1)c1ccc(F)cc1,current ratio I/I0,stronger effect = higher value,1.9
same,V1/2,measured here: L249A mutant V1/2,-41.8 mV
same,current ratio I/I0,"measured here: L249A mutant current ratio, stronger effect = higher value",1.8
same,V1/2,measured here: L249A/L275A double mutant V1/2,-9.1 mV
same,current ratio I/I0,"measured here: L249A/L275A double mutant current ratio, stronger effect = higher value",2.3
same,V1/2,measured here: L275A mutant V1/2,-28.3 mV
same,current ratio I/I0,"measured here: L275A mutant current ratio, stronger effect = higher value",1.8
same,V1/2,measured here: W236L mutant V1/2,-38.6 mV
same,current ratio I/I0,"measured here: W236L mutant current ratio, stronger effect = higher value",1.7
same,deactivation tau,"measured here: WT deactivation time constant, stronger effect = higher value",172 ms
same,V1/2,measured here: WT half-activation voltage with compound,-55.3 mV
